Assay results taken from US20180353755A1, “EPIDURAL STIMULATION FOR FACILITATION OF LOCOMOTION, POSTURE, VOLUNTARY MOVEMENT, AND RECOVERY OF AUTONOMIC, SEXUAL, VASOMOTOR, AND COGNITIVE FUNCTION AFTER NEUROLOGICAL INJURY” (NeuroRecovery Technologies, Inc., priority 2014, published 2018).

Test system: rat with complete mid-thoracic spinal cord transection
Experiment: Locomotor behavior of rats one week after complete mid-thoracic spinal cord transection, drug therapy with or without epidural stimulation (FIG. 1)
Type: in vivo
Conditions: one week post-injury; for Locomotor behavior, epidural stimulation in combination with a single drug: epidural stimulation simultaneously at L2 plus S1; for Locomotor behavior after administration of drug: no epidural stimulation
Description: FIG. 1 summarizes recent experiments in rats that were carried out to assess the effectiveness of epidural stimulation coupled with combined drug therapy in the treatment of complete spinal cord injuries. The combination of quipazine and 8-OHDPAT with simultaneous epidural stimulation at spinal sites L2 and S1 results in robust coordinated stepping as early as one week after a complete spinal cord transection. Locomotor behavior observed from a typical rat before the injury and one week after a complete mid-thoracic spinal cord transection. The amount of body weight support provided to the rat is shown in red. One week post-injury, no spontaneous stepping activity is observed. […] Sol, soleus; TA, tibialis anterior;MTP, metatarsal-phalangeal.
FIG. 1 summarizes experiments in rats that were carried out to assess the effectiveness of epidural stimulation coupled with combined drug therapy in acute treatment of complete spinal cord injury.

Compound	Locomotor behavior, epidural stimulation in combination with a single drug	Locomotor behavior after administration of drug
c1ccc2nc(N3CCNCC3)ccc2c1 [Quipazine]	enables plantar stepping	erratic movements
CCCN(CCC)C1CCc2cccc(O)c2C1 (stereo not shown) [8-OHDPAT]	enables plantar stepping	erratic movements
